Laboratory results from PubChem BioAssay AID248 (DTP/NCI, 2004).
Where “and” joins values, the source holds several entries; their conditions need not be identical. Equal values may be shown once. Inconclusive results and toxic doses are left out. Cut-off read from the data, not from the text of the source: active = T/C of 150% or more; inactive = T/C below 125%.

Tested on: L1210 leukemia ip in BDF1 mice, survival T/C
Assay: NCI In Vivo Anticancer Drug Screen. Data for tumor model L1210 Leukemia (intraperitoneal) in B6D2F1 (BDF1) mice
Conditions: endpoint: mean survival time, higher = longer survival
Summary of the method: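 In this screen, tumor-bearing mice given compound are compared to those given vehicle, and their survival values are reported as a treated-to-control quotient.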

[1] = dose: 100.0 mg/kg/injection, schedule: Q04DX002 (ip), vehicle: Klucel (hydroxypropylcellulose) (HPC)
[2] = dose: 100.0 mg/kg/injection, schedule: Q01DX001 (ip), vehicle: saline
[3] = dose: 200.0 mg/kg/injection, schedule: Q01DX001 (ip), vehicle: saline
[4] = dose: 400.0 mg/kg/injection, schedule: Q01DX001 (ip), vehicle: saline
[5] = dose: 100.0 mg/kg/injection, schedule: Q01DX009 (ip), vehicle: saline with Tween-80
[6] = dose: 100.0 mg/kg/injection, schedule: Q04DX003 (ip), vehicle: saline with Tween-80
[7] = dose: 200.0 mg/kg/injection, schedule: Q01DX009 (ip), vehicle: saline with Tween-80
[8] = dose: 200.0 mg/kg/injection, schedule: Q04DX003 (ip), vehicle: saline with Tween-80
[9] = dose: 400.0 mg/kg/injection, schedule: Q01DX009 (ip), vehicle: saline with Tween-80
[10] = dose: 400.0 mg/kg/injection, schedule: Q04DX003 (ip), vehicle: saline with Tween-80
[11] = dose: 100.0 mg/kg/injection, schedule: Q04DX003 (ip), vehicle: Klucel (hydroxypropylcellulose) (HPC)
[12] = dose: 200.0 mg/kg/injection, schedule: Q04DX003 (ip), vehicle: Klucel (hydroxypropylcellulose) (HPC)
[13] = dose: 400.0 mg/kg/injection, schedule: Q04DX003 (ip), vehicle: Klucel (hydroxypropylcellulose) (HPC)
[14] = dose: 100.0 mg/kg/injection, schedule: Q01DX001 (ip), vehicle: carboxymethylcellulose (CMC)
[15] = dose: 200.0 mg/kg/injection, schedule: Q01DX001 (ip), vehicle: carboxymethylcellulose (CMC)
[16] = dose: 200.0 mg/kg/injection, schedule: Q04DX002 (ip), vehicle: Klucel (hydroxypropylcellulose) (HPC)
[17] = dose: 400.0 mg/kg/injection, schedule: Q04DX002 (ip), vehicle: Klucel (hydroxypropylcellulose) (HPC)
[18] = dose: 100.0 mg/kg/injection, schedule: Q01DX009 (ip), vehicle: Klucel (hydroxypropylcellulose) (HPC)
[19] = dose: 200.0 mg/kg/injection, schedule: Q01DX009 (ip), vehicle: Klucel (hydroxypropylcellulose) (HPC)
[20] = dose: 400.0 mg/kg/injection, schedule: Q01DX009 (ip), vehicle: Klucel (hydroxypropylcellulose) (HPC)

Measured: T/C

NC(CSS(=O)(=O)O)=NCCCCOc1ccccc1
inactive: dose: 6.25 mg/kg/injection, schedule: Q04DX002 (ip), vehicle: Klucel (hydroxypropylcellulose) (HPC) 111 % of control | dose: 12.5 mg/kg/injection, schedule: Q04DX002 (ip), vehicle: Klucel (hydroxypropylcellulose) (HPC) 89 % of control | dose: 25.0 mg/kg/injection, schedule: Q04DX002 (ip), vehicle: Klucel (hydroxypropylcellulose) (HPC) 108 % of control | [1] 97 % of control

CCCc1cc2c3c(c(=O)oc2cc1OCCN1CCCC1)CCCC3
inactive: dose: 37.5 mg/kg/injection, schedule: Q01DX001 (ip), vehicle: saline with Tween-80 92 % of control | dose: 37.5 mg/kg/injection, schedule: Q04DX003 (ip), vehicle: saline with Tween-80 96 % of control | dose: 75.0 mg/kg/injection, schedule: Q01DX001 (ip), vehicle: saline with Tween-80 94 % of control | dose: 75.0 mg/kg/injection, schedule: Q04DX003 (ip), vehicle: saline with Tween-80 100 % of control | dose: 150.0 mg/kg/injection, schedule: Q01DX001 (ip), vehicle: saline with Tween-80 100 % of control | dose: 150.0 mg/kg/injection, schedule: Q04DX003 (ip), vehicle: saline with Tween-80 98 % of control

Cc1ccc(C(=O)CCN2CCOCC2)c(C)c1
inactive: [2] 102 % of control | [3] 96 % of control | [4] 96 % of control

Cc1cccc(OC(F)(F)C(F)Cl)c1 (stereo not given)
inactive: [5] 94 % of control | [6] 93 % of control | [7] 92 % of control | [8] 93 % of control | [9] 100 % of control | [10] 95 % of control

O=c1[nH]c(=O)n2n1CC(Br)C(Br)C2 (stereo not given)
inactive: [5] 94 % of control | [6] 106 % of control | [7] 96 % of control | [8] 110 % of control | [9] 100 % of control | [10] 94 % of control

CC1(C)CC(NC(=O)NCCCl)CC(C)(C)N1
inactive: dose: 12.5 mg/kg/injection, schedule: Q01DX009 (ip), vehicle: saline 98 % of control | dose: 12.5 mg/kg/injection, schedule: Q04DX003 (ip), vehicle: saline 101 % of control | dose: 25.0 mg/kg/injection, schedule: Q01DX009 (ip), vehicle: saline 95 % of control | dose: 25.0 mg/kg/injection, schedule: Q04DX003 (ip), vehicle: saline 114 % of control | dose: 50.0 mg/kg/injection, schedule: Q04DX003 (ip), vehicle: saline 104 % of control

CC1(C)C2CCC1(C)C(OC(=O)C1OC(O)C(O)C(O)C1O)C2 (stereo not given)
inactive: [6] 102 % of control | [8] 104 % of control | [10] 102 % of control

Nc1nc(-c2cccs2)cc(C(F)(F)F)n1
inactive: [11] 94 % of control | [12] 94 % of control | [13] 102 % of control

c1ccc(C(c2ccccc2)(c2nccs2)n2ccnc2)cc1
inactive: [11] 95 % of control | [12] 98 % of control | [13] 104 % of control

O=S1(=O)OCc2ccccc21
inactive: dose: 50.0 mg/kg/injection, schedule: Q01DX009 (ip), vehicle: acetone 106 % of control | [14] 100 % of control | dose: 100.0 mg/kg/injection, schedule: Q01DX009 (ip), vehicle: acetone 97 % of control | dose: 100.0 mg/kg/injection, schedule: Q04DX003 (ip), vehicle: saline 100 % of control | [15] 100 % of control | dose: 200.0 mg/kg/injection, schedule: Q04DX003 (ip), vehicle: saline 94 % of control

CC1CCN(P(c2ccccc2)N2CCC(C)CC2)CC1
inactive: [1] 97 % of control | [16] 97 % of control | [17] 100 % of control

O=C1NC(c2cccc3ccccc23)Nc2ccc(Cl)cc21 (stereo not given)
inactive: dose: 50.0 mg/kg/injection, schedule: Q01DX009 (ip), vehicle: Klucel (hydroxypropylcellulose) (HPC) 108 % of control and 109 % of control | dose: 150.0 mg/kg/injection, schedule: Q01DX009 (ip), vehicle: Klucel (hydroxypropylcellulose) (HPC) 116 % of control

Clc1c2ccccc2cc2ccccc12
inactive: [1] 92 % of control | [16] 100 % of control | [17] 107 % of control

Cc1nn(C)c(C#N)c1[N+](=O)[O-]
inactive: [11] 98 % of control | [12] 100 % of control

CCOC(=O)/C=C\CC(O)CC (stereo not given)
inactive: [18] 105 % of control | [11] 98 % of control | [19] 105 % of control | [12] 104 % of control | [20] 118 % of control | [13] 114 % of control

CCCC(O)(CCC)C(=O)O
inactive: [2] 94 % of control | [3] 94 % of control

CC(=O)O[C@H]1CC[C@H]2[C@@H]3CC[C@H]4C[C@@H]5[C@H](C[C@]4(C)[C@H]3CC[C@]12C)C5(F)F
inactive: dose: 50.0 mg/kg/injection, schedule: Q01DX001 (sc), vehicle: steriod suspending solution 102 % of control | dose: 50.0 mg/kg/injection, schedule: Q01DX009 (sc), vehicle: steriod suspending solution 103 % of control | dose: 100.0 mg/kg/injection, schedule: Q01DX001 (sc), vehicle: steriod suspending solution 101 % of control | dose: 100.0 mg/kg/injection, schedule: Q01DX009 (sc), vehicle: steriod suspending solution 105 % of control | dose: 200.0 mg/kg/injection, schedule: Q01DX001 (sc), vehicle: steriod suspending solution 98 % of control | dose: 200.0 mg/kg/injection, schedule: Q01DX009 (sc), vehicle: steriod suspending solution 102 % of control | dose: 400.0 mg/kg/injection, schedule: Q01DX001 (sc), vehicle: steriod suspending solution 101 % of control | dose: 400.0 mg/kg/injection, schedule: Q01DX009 (sc), vehicle: steriod suspending solution 102 % of control

CC(CCC(=O)O)C1CCC2C3CCC4CC(OC=O)CCC4(C)C3CC(=O)C12C (stereo not given)
inactive: dose: 100.0 mg/kg/injection, schedule: Q01DX001 (ip), vehicle: saline with Tween-80 98 % of control | dose: 200.0 mg/kg/injection, schedule: Q01DX001 (ip), vehicle: saline with Tween-80 95 % of control | dose: 400.0 mg/kg/injection, schedule: Q01DX001 (ip), vehicle: saline with Tween-80 101 % of control

Nc1ncnc(N)c1NC(=O)c1ccc(C(=O)c2cccc([N+](=O)[O-])c2)cc1
inactive: dose: 100.0 mg/kg/injection, schedule: Q01DX001 (ip), vehicle: gum acacia 97 % of control | dose: 200.0 mg/kg/injection, schedule: Q01DX001 (ip), vehicle: gum acacia 100 % of control | dose: 400.0 mg/kg/injection, schedule: Q01DX001 (ip), vehicle: gum acacia 93 % of control

Clc1cccc2ccc(-c3cc4ccccc4s3)nc12
inactive: dose: 50.0 mg/kg/injection, schedule: Q01DX001 (ip), vehicle: saline 102 % of control | [2] 101 % of control | [3] 101 % of control | [4] 106 % of control

OC(O)C(F)(F)F
inactive: [5] 109 % of control | [6] 111 % of control | [7] 121 % of control | [8] 104 % of control | [9] 97 % of control | [10] 105 % of control

Oc1cccc2ccc(N/N=C/c3ccc4cccnc4c3O)nc12
inactive: [14] 93 % of control | [15] 102 % of control | dose: 400.0 mg/kg/injection, schedule: Q01DX001 (ip), vehicle: carboxymethylcellulose (CMC) 93 % of control

Cc1cc(C)cc(OCC#CCN(C)c2ccccc2)c1
inactive: [1] 99 % of control | [16] 99 % of control | [17] 96 % of control

Cc1ccc([N+](=O)[O-])cc1NC(=O)C(Cl)(Cl)Cl
inactive: [5] 94 % of control | [7] 98 % of control | [9] 100 % of control

CC(C)=CCNC(=O)NS(=O)(=O)c1ccc(C)cc1
inactive: dose: 50.0 mg/kg/injection, schedule: Q04DX002 (ip), vehicle: Klucel (hydroxypropylcellulose) (HPC) 104 % of control | [18] 100 % of control | [1] 89 % of control | [19] 107 % of control | [16] 93 % of control | [20] 96 % of control

CCOC(=O)OC1C(OC)OC2COC(c3ccccc3)OC2C1O (stereo not given)
inactive: [1] 91 % of control | [16] 91 % of control | [17] 107 % of control
